In patent US4244970A, “Method of treating inflammation” (Forsyth Dental Infirmary for Children, priority 1979, dated 1981) one finds IC50 data, which are given here for one compound.

This assay addresses prostaglandin synthetase (Ovis aries, UniProt P05979). Briefly: Prostaglandin synthetase inhibition, sheep vesicular gland microsomal preparation (oxygen electrode). In kind it is biochemical. The following applies: sheep vesicular gland microsomes; 0.1 M Tris HCl pH 8.0; inhibitor added 1 minute before arachidonate; read-out: [I]50, concentration of an inhibitor that reduced prostaglandin synthesis by 50%.

SMILES strings stand for the structures.

Chain of prostaglandin synthetase (P05979 25-600): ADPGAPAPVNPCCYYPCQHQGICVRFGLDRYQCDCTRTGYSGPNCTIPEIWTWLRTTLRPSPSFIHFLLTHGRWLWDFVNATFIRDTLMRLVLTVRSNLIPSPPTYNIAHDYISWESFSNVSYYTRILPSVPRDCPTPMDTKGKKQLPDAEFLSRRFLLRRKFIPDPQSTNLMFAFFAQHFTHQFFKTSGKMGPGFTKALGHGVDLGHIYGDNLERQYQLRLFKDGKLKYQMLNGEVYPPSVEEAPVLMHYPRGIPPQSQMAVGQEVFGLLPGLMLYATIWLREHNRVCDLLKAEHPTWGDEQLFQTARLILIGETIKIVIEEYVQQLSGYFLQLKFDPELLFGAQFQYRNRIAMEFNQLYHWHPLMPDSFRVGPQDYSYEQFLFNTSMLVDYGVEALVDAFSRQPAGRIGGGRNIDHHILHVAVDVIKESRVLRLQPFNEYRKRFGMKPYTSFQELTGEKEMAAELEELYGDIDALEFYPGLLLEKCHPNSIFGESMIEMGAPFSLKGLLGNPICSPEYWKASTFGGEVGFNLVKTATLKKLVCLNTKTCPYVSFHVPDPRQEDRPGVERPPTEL
Protocol: Prostaglandin synthetase activity was determined by following oxygen tension in a closed reaction chamber using a Clark-type oxygen electrode. For each assay 2.9 ml of 0.1 M Tris HCl buffer, pH 8.0, 10 ul of 0.2 M phenol, and 50 ul of enzyme suspension (2.5 mg microsomal preparation) were added to the reaction chamber. Ten ul of inhibitor in ethanol was added 1 minute prior to initiation of the reaction. The reaction was initiated by addition of 10 ul of 3.6 mM arachidonate solution. The concentration of an inhibitor that reduced prostaglandin synthesis by 50% ([I]50) was determined from plots of activity vs log concentration of inhibitor.

Take `O=C(c1ccccc1)c1ccccc1O` [2-hydroxybenzophenone]: the IC50 is 3.8 µM.
